Test results published in ChEMBL document CHEMBL6134788, “Development of naphthalimide hydrazide derivatives as potent antibacterial agents against carbapenem-resistant A. baumannii” (RSC Med Chem, 2024).
In brackets after ≈: the same amount, converted by molar mass.

What was measured:
[1] = test system: Acinetobacter baumannii; experiment: Antibacterial activity against Acinetobacter baumannii assessed as inhibition of bacterial growth by twofold serial dilution method; format: functional
[2] = test system: Escherichia coli; experiment: Antibacterial activity against Escherichia coli ATCC 25922 assessed as inhibition of bacterial growth incubated for 16 to 18 hrs by CLSI protocol based method; format: functional; details: time 16-18 hrs, read-out: MIC100
[3] = test system: Staphylococcus aureus; experiment: Antibacterial activity against Staphylococcus aureus ATCC 29213 assessed as inhibition of bacterial growth incubated for 16 to 18 hrs by CLSI protocol based method; format: functional; details: time 16-18 hrs, read-out: MIC100
[4] = test system: Klebsiella pneumoniae; experiment: Antibacterial activity against Klebsiella pneumoniae BAA 1705 assessed as inhibition of bacterial growth incubated for 16 to 18 hrs by CLSI protocol based method; format: functional; details: time 16-18 hrs, read-out: MIC100
[5] = test system: Acinetobacter baumannii; experiment: Antibacterial activity against carbapenem-resistant Acinetobacter baumannii BAA 1605 assessed as inhibition of bacterial growth incubated for 16 to 18 hrs by CLSI protocol based method; format: functional; details: time 16-18 hrs, read-out: MIC100
[6] = test system: Pseudomonas aeruginosa; experiment: Antibacterial activity against Pseudomonas aeruginosa ATCC 27853 assessed as inhibition of bacterial growth incubated for 16 to 18 hrs by CLSI protocol based method; format: functional; details: time 16-18 hrs, read-out: MIC100
[7] = Cytotoxicity against African green monkey Vero cells assessed as reduction in cell viability incubated for 72 hrs by MTT assay; format: toxicity, cell-based; details: chlorocebus sabaeus
[8] = Selectivity index, ratio of CC50 for cytotoxicity against African green monkey VERO cells to MIC for antibacterial activity against carbapenem-resistant Acinetobacter baumannii BAA 1605 assessed as inhibition of bacterial growth; format: toxicity, cell-based; details: read-out: Selectivity Index
[9] = test system: Acinetobacter baumannii; experiment: Antibacterial activity against multi-drug resistant Acinetobacter baumannii H72721 assessed as inhibition of bacterial growth incubated for 16 to 18 hrs by CLSI protocol based method; format: functional; details: time 16-18 hrs, read-out: MIC100
[10] = test system: Acinetobacter baumannii; experiment: Antibacterial activity against multi-drug resistant Acinetobacter baumannii clinical isolate 1 assessed as inhibition of bacterial growth incubated for 16 to 18 hrs by CLSI protocol based method; format: functional; details: time 16-18 hrs, read-out: MIC100
[11] = test system: Acinetobacter baumannii; experiment: Antibacterial activity against multi-drug resistant Acinetobacter baumannii clinical isolate 2 assessed as inhibition of bacterial growth incubated for 16 to 18 hrs by CLSI protocol based method; format: functional; details: time 16-18 hrs, read-out: MIC100
[12] = test system: Acinetobacter baumannii; experiment: Antibacterial activity against multi-drug resistant Acinetobacter baumannii clinical isolate 3 assessed as inhibition of bacterial growth incubated for 16 to 18 hrs by CLSI protocol based method; format: functional; details: time 16-18 hrs, read-out: MIC100
[13] = test system: Acinetobacter baumannii; experiment: Antibacterial activity against multi-drug resistant Acinetobacter baumannii clinical isolate 4 assessed as inhibition of bacterial growth incubated for 16 to 18 hrs by CLSI protocol based method; format: functional; details: time 16-18 hrs, read-out: MIC100
[14] = test system: Acinetobacter baumannii; experiment: Antibacterial activity against multi-drug resistant Acinetobacter baumannii clinical isolate 5 assessed as inhibition of bacterial growth incubated for 16 to 18 hrs by CLSI protocol based method; format: functional; details: time 16-18 hrs, read-out: MIC100
[15] = test system: Acinetobacter baumannii; experiment: Antibacterial activity against multi-drug resistant Acinetobacter baumannii clinical isolate 6 assessed as inhibition of bacterial growth incubated for 16 to 18 hrs by CLSI protocol based method; format: functional; details: time 16-18 hrs, read-out: MIC100
[16] = test system: Acinetobacter baumannii; experiment: Antibacterial activity against multi-drug resistant Acinetobacter baumannii clinical isolate 7 assessed as inhibition of bacterial growth incubated for 16 to 18 hrs by CLSI protocol based method; format: functional; details: time 16-18 hrs, read-out: MIC100
[17] = test system: Acinetobacter baumannii; experiment: Antibacterial activity against multi-drug resistant Acinetobacter baumannii clinical isolate 8 assessed as inhibition of bacterial growth incubated for 16 to 18 hrs by CLSI protocol based method; format: functional; details: time 16-18 hrs, read-out: MIC100
[18] = test system: Acinetobacter baumannii; experiment: Antibacterial activity against multi-drug resistant Acinetobacter baumannii clinical isolate 9 assessed as inhibition of bacterial growth incubated for 16 to 18 hrs by CLSI protocol based method; format: functional; details: time 16-18 hrs, read-out: MIC100
[19] = test system: Acinetobacter baumannii; experiment: Antibacterial activity against multi-drug resistant Acinetobacter baumannii clinical isolate 10 assessed as inhibition of bacterial growth incubated for 16 to 18 hrs by CLSI protocol based method; format: functional; details: time 16-18 hrs, read-out: MIC100
[20] = test system: Acinetobacter baumannii; experiment: Antibacterial activity against multi-drug resistant Acinetobacter baumannii clinical isolate 11 assessed as inhibition of bacterial growth incubated for 16 to 18 hrs by CLSI protocol based method; format: functional; details: time 16-18 hrs, read-out: MIC100
[21] = test system: Acinetobacter baumannii; experiment: Antibacterial activity against multi-drug resistant Acinetobacter baumannii clinical isolate 12 assessed as inhibition of bacterial growth incubated for 16 to 18 hrs by CLSI protocol based method; format: functional; details: time 16-18 hrs, read-out: MIC100
[22] = test system: Acinetobacter baumannii; experiment: Antibacterial activity against multi-drug resistant Acinetobacter baumannii NR-17777 assessed as inhibition of bacterial growth incubated for 16 to 18 hrs by CLSI protocol based method; format: functional; details: time 16-18 hrs, read-out: MIC100
[23] = test system: Acinetobacter baumannii; experiment: Antibacterial activity against multi-drug resistant Acinetobacter baumannii 5-032 assessed as inhibition of bacterial growth incubated for 16 to 18 hrs by CLSI protocol based method; format: functional; details: time 16-18 hrs, read-out: MIC100
[24] = test system: Acinetobacter baumannii; experiment: Antibacterial activity against multi-drug resistant Acinetobacter baumannii 5-109 assessed as inhibition of bacterial growth incubated for 16 to 18 hrs by CLSI protocol based method; format: functional; details: time 16-18 hrs, read-out: MIC100
[25] = test system: Acinetobacter baumannii; experiment: Antibacterial activity against multi-drug resistant Acinetobacter baumannii 5-143 assessed as inhibition of bacterial growth incubated for 16 to 18 hrs by CLSI protocol based method; format: functional; details: time 16-18 hrs, read-out: MIC100
[26] = test system: Acinetobacter baumannii; experiment: Antibacterial activity against multi-drug resistant Acinetobacter baumannii 5-189 assessed as inhibition of bacterial growth incubated for 16 to 18 hrs by CLSI protocol based method; format: functional; details: time 16-18 hrs, read-out: MIC100
[27] = test system: Acinetobacter baumannii; experiment: Antibacterial activity against multi-drug resistant Acinetobacter baumannii BC-5 assessed as inhibition of bacterial growth incubated for 16 to 18 hrs by CLSI protocol based method; format: functional; details: time 16-18 hrs, read-out: MIC100
[28] = test system: Acinetobacter baumannii; experiment: Antibacterial activity against multi-drug resistant Acinetobacter baumannii Naval-17 assessed as inhibition of bacterial growth incubated for 16 to 18 hrs by CLSI protocol based method; format: functional; details: time 16-18 hrs, read-out: MIC100
[29] = test system: Acinetobacter baumannii; experiment: Antibacterial activity against multi-drug resistant Acinetobacter baumannii Naval-18 assessed as inhibition of bacterial growth incubated for 16 to 18 hrs by CLSI protocol based method; format: functional; details: time 16-18 hrs, read-out: MIC100
[30] = test system: Acinetobacter baumannii; experiment: Antibacterial activity against multi-drug resistant Acinetobacter baumannii Naval-81 assessed as inhibition of bacterial growth incubated for 16 to 18 hrs by CLSI protocol based method; format: functional; details: time 16-18 hrs, read-out: MIC100
[31] = test system: Acinetobacter baumannii; experiment: Antibacterial activity against multi-drug resistant Acinetobacter baumannii WL-136 assessed as inhibition of bacterial growth incubated for 16 to 18 hrs by CLSI protocol based method; format: functional; details: time 16-18 hrs, read-out: MIC100
[32] = test system: Acinetobacter baumannii; experiment: Antibacterial activity against multi-drug resistant Acinetobacter baumannii WL-487 assessed as inhibition of bacterial growth incubated for 16 to 18 hrs by CLSI protocol based method; format: functional; details: time 16-18 hrs, read-out: MIC100
[33] = test system: Acinetobacter baumannii; experiment: Antibacterial activity against Acinetobacter baumannii ATCC 17978 assessed as inhibition of bacterial growth incubated for 16 to 18 hrs by CLSI protocol based method; format: functional; details: time 16-18 hrs, read-out: MIC100
[34] = test system: Staphylococcus aureus; experiment: Antibacterial activity against Staphylococcus aureus; format: functional
[35] = test system: Acinetobacter baumannii; experiment: Antibacterial activity against Acinetobacter baumannii; format: functional

Structure (SMILES)	MIC [3]	MIC [5]	CC50 at 72 h [7]	MIC [10]	MIC [11]	MIC [12]	MIC [13]	MIC [15]	MIC [17]	MIC [18]	MIC [19]	MIC [20]	MIC [21]	MIC [23]	MIC [25]	MIC [28]	MIC [29]	MIC [31]	MIC [32]	MIC [33]	further results
CCCCCCCCCCN1CCN(c2ccc3c4c(cccc24)C(=O)N(CC(O)Cn2c([N+](=O)[O-])cnc2C)C3=O)CC1 (stereo not given)	–	–	–	–	–	–	–	–	–	–	–	–	–	–	–	–	–	–	–	–	MIC [1]: 13 µM (≈ 7.86 µg/mL)
N#Cc1ccc(NNC(=O)CCN2C(=O)c3cccc4cccc(c34)C2=O)cc1	> 64 µg/mL	0.5 µg/mL (≈ 1.3 µM)	> 100 µg/mL	1 µg/mL (≈ 2.6 µM)	2 µg/mL (≈ 5.2 µM)	1 µg/mL (≈ 2.6 µM)	2 µg/mL (≈ 5.2 µM)	4 µg/mL (≈ 10.4 µM)	2 µg/mL (≈ 5.2 µM)	2 µg/mL (≈ 5.2 µM)	8 µg/mL (≈ 20.8 µM)	2 µg/mL (≈ 5.2 µM)	2 µg/mL (≈ 5.2 µM)	2 µg/mL (≈ 5.2 µM)	1 µg/mL (≈ 2.6 µM)	2 µg/mL (≈ 5.2 µM)	2 µg/mL (≈ 5.2 µM)	2 µg/mL (≈ 5.2 µM)	4 µg/mL (≈ 10.4 µM)	2 µg/mL (≈ 5.2 µM)	MIC [2]: > 64 µg/mL; MIC [4]: > 64 µg/mL; MIC [6]: > 64 µg/mL; selectivity ratio [8]: > 200; MIC [9]: 2 µg/mL (≈ 5.2 µM); MIC [14]: 4 µg/mL (≈ 10.4 µM); MIC [16]: 1 µg/mL (≈ 2.6 µM); MIC [22]: 2 µg/mL (≈ 5.2 µM); MIC [24]: 2 µg/mL (≈ 5.2 µM); MIC [26]: 4 µg/mL (≈ 10.4 µM); MIC [27]: 2 µg/mL (≈ 5.2 µM); MIC [30]: 2 µg/mL (≈ 5.2 µM)
Cc1ccc2cc(C(=O)N3CCN(CCN4C(=O)c5cccc6cccc(c56)C4=O)CC3)c(=O)oc2c1	–	–	–	–	–	–	–	–	–	–	–	–	–	–	–	–	–	–	–	–	MIC [34]: 0.5 µg/mL (≈ 1.01 µM)
N#Cc1ccc(NNC(=O)c2ccc(Br)cc2)cc1	–	–	–	–	–	–	–	–	–	–	–	–	–	–	–	–	–	–	–	–	MIC [35]: 0.25 µg/mL (≈ 0.791 µM)
C[C@H]1COc2c(N3CCN(C)CC3)c(F)cc3c(=O)c(C(=O)O)cn1c23 [LEVOFLOXACIN ANHYDROUS]	0.25 µg/mL (≈ 0.692 µM)	4 µg/mL (≈ 11.1 µM)	> 400 µg/mL	32 µg/mL (≈ 88.6 µM)	> 64 µg/mL	64 µg/mL (≈ 177 µM)	> 64 µg/mL	4 µg/mL (≈ 11.1 µM)	4 µg/mL (≈ 11.1 µM)	4 µg/mL (≈ 11.1 µM)	> 64 µg/mL	64 µg/mL (≈ 177 µM)	4 µg/mL (≈ 11.1 µM)	0.25 µg/mL (≈ 0.692 µM)	1 µg/mL (≈ 2.77 µM)	16 µg/mL (≈ 44.3 µM)	4 µg/mL (≈ 11.1 µM)	0.25 µg/mL (≈ 0.692 µM)	0.125 µg/mL (≈ 0.346 µM)	0.03 µg/mL (≈ 0.083 µM)	–
